Data reported in patent US7851637B2, “Compounds and methods for inhibiting the interaction of BCL proteins with binding partners” (Infinity Pharmaceuticals, Inc., priority 2004, dated 2010).
pIC50, pKi: −log10 of the molar value. Read-outs that look alike come from different tables or passages of the source.

Assays:
Bcl-xL = Bcl-xL (Homo sapiens, UniProt Q07817); assay: Bcl-xL binding affinity analysis (fluorescence polarization binding assay); set-up: scale not given here
Procedure, shortened: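 In vitro fluorescence polarization binding assay measuring compound binding to human Bcl-xL.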

Bcl-2 = Bcl-2 (Homo sapiens, UniProt P10415); assay: Bcl-2 binding affinity analysis (fluorescence polarization binding assay)
Bcl-2, sequence (P10415 whole entry): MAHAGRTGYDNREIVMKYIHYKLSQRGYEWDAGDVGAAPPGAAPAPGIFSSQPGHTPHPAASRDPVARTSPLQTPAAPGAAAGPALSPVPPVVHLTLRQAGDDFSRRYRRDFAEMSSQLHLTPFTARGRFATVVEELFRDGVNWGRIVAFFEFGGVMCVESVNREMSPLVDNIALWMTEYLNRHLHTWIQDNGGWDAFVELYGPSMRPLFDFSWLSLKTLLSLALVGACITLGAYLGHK
Procedure, shortened: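 Binding to human Bcl-2 quantified in vitro by a fluorescence polarization assay.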

[1] = system: RL Human Follicular Lymphoma Cell Line; assay: Alamar blue cytotoxicity assay in RL cells; assay type: cell-based; settings: Homo sapiens, 72 h incubation, read-out: Bcl RL Alamar Blue IC50
Method: (§1) When RL-cells are exposed to isoxazolidine compounds of the present invention, the inhibitors show a dose-dependent cell-killing in the Alamar blue cytoxicity assay with IC50 values of from about 100 μM to about 1 μM (See Examples). When Panc1 cells are exposed to the isoxazolidine compounds of the present invention in combination with camptothecin, the inhibitors show a synergistic dose-dependent cell killing in the propidium iodide exclusion cell survival assay with IC50 values of from about 100 μM to about 1 μM (See Examples).
• 1) Using 96 well plates, compounds were serially diluted in DMSO from 9 mM to 4 uM • 2) Assay plates were prepared by diluting samples 310 fold into 150 ul of medium containing 30,000 cells/well resulting in a final DMSO concentration of 0.3% and a concentration range from 29 uM to 0.013 uM for each compound. • 3) Plates were incubated at 37 C and 5% CO2 for 72 h • 4) After 72 h, Alamar blue reagent was added to each well and plates read according to manufacturer's instructions
In vitro cytotoxicity data for RL cells is presented below for various compounds of the invention.

[2] = system: Human Pancreatic Cancer Cell Line Panc1; assay: Cell death assay (propidium iodide/Hoechst) in Panc1 cells with or without camptothecin; assay type: cell-based; settings: 72 hours, % cell death by propidium iodide/Hoechst
Method: as §1
• 1) Compounds were serially diluted in DMSO from a 9 mM stock to a final concentration of 0.004 mM in a 96 well plate. • 2) Assay plates were prepared by diluting compounds 310 fold into 150 ul of medium containing 10,000 cells/well, with or without 3 uM Camptothecin, resulting in a final DMSO concentration of 0.3% and a compound concentration range from 29 uM to […] for each compound. • 3) Assay plates were incubated at 37 C, 5% CO2 for 72 hours. • 4) After 72 hours, propidium iodide and Hoechst dye were added to each well according to manufacturer's instruction. • 5) Plates were imaged on a fluorescence microscope at wavelengths Ex560/Em650 (Propidium iodide) and Ex360/Em465 (Hoechst) • 6) MetaMorph imaging software was used to determine % cell death by dividing the number of propidium iodide stained cells (dead cells) by the number of Hoechst stained cells (all cells), multipled by 100, in each field.
Panc1 invitro cellular data is presented below for various compounds of the invention.

[3] = Homo sapiens, PANC-1, without camptothecin, read-out: Panc1 − Cpt IC50
[4] = with 3 uM Camptothecin, read-out: Panc1 + Cpt IC50

Bcl-xL, sequence (Q07817 whole entry): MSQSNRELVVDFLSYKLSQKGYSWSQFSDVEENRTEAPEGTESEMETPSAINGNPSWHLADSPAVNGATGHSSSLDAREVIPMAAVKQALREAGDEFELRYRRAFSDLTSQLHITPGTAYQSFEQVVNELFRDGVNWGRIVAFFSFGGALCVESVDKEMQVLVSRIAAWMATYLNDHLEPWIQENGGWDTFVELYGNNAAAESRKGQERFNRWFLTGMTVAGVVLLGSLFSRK

Row | Structure (SMILES) | Bcl-XL binding affinity Ki (Bcl-xL) | pKi (Bcl-2) | pIC50 [1] | pIC50 [2, 3] | pIC50 [2, 4]
1 | COc1cccc(OC)c1CN(Cc1cccc(CN2OC(CO)C(C(C)O)C2C(=O)NC2CC3CC(C2C)C3(C)C)c1)C(CC(C)C)CN(C)C (centres unmarked) [Compound 324] | ♯ | > 6.10 | > 5.70 | – | –
2 | C[C@@H]1[C@@H](NC(=O)[C@@H]2C([C@H](C)O)[C@H](CO)ON2Cc2cccc(CN(CCN(C)C)Cc3ccccc3OC(F)(F)F)c2)C[C@H]2C[C@@H]1C2(C)C (some centres unmarked) [Compound 365] | ♯ | > 6.10 | > 5.70 | – | –
3 | CC(O)C1C(CO)ON(Cc2cccc(CN(CCN(C)C)Cc3cccc(Oc4ccccc4)c3)c2)C1C(=O)NC1CC2CC(C1C)C2(C)C (centres unmarked) [Compound 374] | ♯ | > 6.10 | 5.30 to 5.70 | – | –
4 | C[C@@H]1[C@@H](NC(=O)[C@@H]2[C@H]([C@H](C)O)[C@H](CO)ON2Cc2cccc(NC(=O)N(C)[C@H](CC3CCCCC3)CN(C)C)c2)C[C@H]2C[C@@H]1C2(C)C [Compound 576] | ♯ | > 6.10 | 5.30 to 5.70 | – | –
5 | COc1cc(CN(CCN(C)C)Cc2cccc(CN3OC(CO)C(C(C)O)C3C(=O)NC3CC4CC(C3C)C4(C)C)c2)cc(OC)c1 (centres unmarked) [Compound 404] | ♯ | > 6.10 | 5.30 to 5.70 | – | –
6 | CCCCCCCN(CCN(C)C)Cc1cccc(CN2O[C@@H](CO)C([C@H](C)O)[C@H]2C(=O)N[C@H]2C[C@H]3C[C@@H]([C@@H]2C)C3(C)C)c1 (some centres unmarked) [Compound 355] | ♯ | > 6.10 | 5.30 to 5.70 | – | –
7 | C[C@@H]1[C@@H](NC(=O)[C@@H]2C([C@H](C)O)[C@H](CO)ON2Cc2cccc(CN(CCN(C)C)Cc3cccc(F)c3F)c2)C[C@H]2C[C@@H]1C2(C)C (some centres unmarked) [Compound 362] | ♯ | > 6.10 | 5.30 to 5.70 | – | –
8 | CC(O)C1C(CO)ON(Cc2cccc(CN3C(CN(C)C)CC4CCCCC43)c2)C1C(=O)NC1CC2CC(C1C)C2(C)C (centres unmarked) [Compound 466] | ♯ | > 6.10 | < 5.30 | – | –
9 | C[C@@H]1[C@@H](NC(=O)[C@@H]2[C@H]([C@H](C)O)[C@H](CO)ON2Cc2cccc(N(CCCN(C)C)CC3CCCCC3)c2)C[C@H]2C[C@@H]1C2(C)C [Compound 586] | ♯ | > 6.10 | 5.30 to 5.70 | – | –
10 | C[C@@H]1[C@@H](NC(=O)[C@@H]2[C@H]([C@H](C)O)[C@H](CO)ON2Cc2cccc(NC(=O)N[C@H](Cc3ccccc3)CN(C)C)c2)C[C@H]2C[C@@H]1C2(C)C [Compound 571] | ♯ | > 6.10 | < 5.30 | – | –
11 | CC(O)C1C(CO)ON(Cc2cccc(CNC(CN(C)C)CC(C)(C)C)c2)C1C(=O)NC1CC2CC(C1C)C2(C)C (centres unmarked) [Compound 455] | ♯ | > 6.10 | – | < 5.60 | < 5.60
12 | CCC(C)C(CN(C)C)N(Cc1cccc(CN2OC(CO)C(C(C)O)C2C(=O)NC2CC3CC(C2C)C3(C)C)c1)Cc1ccccc1Br (centres unmarked) [Compound 416] | ♯ | > 6.10 | – | < 5.60 | < 5.60
13 | CC(C)C[C@@H](CN(C)C)N(Cc1cccc(CN2O[C@@H](CO)C([C@H](C)O)[C@H]2C(=O)N[C@H]2C[C@H]3C[C@@H]([C@@H]2C)C3(C)C)c1)Cc1c(Cl)cccc1Cl (some centres unmarked) [Compound 317] | ♯ | > 6.10 | – | < 5.60 | < 5.60
14 | COc1ccc(COc2c(CN3O[C@@H](CO)[C@@H]([C@H](C)O)[C@H]3C(=O)N[C@H]3C[C@H]4C[C@@H]([C@@H]3C)C4(C)C)cccc2-c2ccc(C(=O)N(C)C)cc2)cc1 [Compound 166] | ♯ | > 6.10 | – | < 5.60 | > 5.89
15 | CC(O)C1C(CO)ON(Cc2cccc(CN(CCN3CCCCCC3)Cc3ccccc3)c2)C1C(=O)NC1CC2CC(C1C)C2(C)C (centres unmarked) [Compound 427] | ♯ | > 6.10 | – | < 5.60 | < 5.60
